Experimental data taken from patent US8524740B2, “Synthesis and anticancer activity of aryl and heteroaryl-quinolin derivatives” (Tairx, Inc., priority 2010, dated 2013).

Legend:
[1] = system: HL-60; experiment: MTT assay, HL-60 cells; type: cell-based; settings: Homo sapiens
Method: (§1) MTT (3-(4,5-Dimethylthiazol-2-yl)-2,5-diphenyltetrazolium bromide) assays.^21,22 HL-60, HCT-116, Hep 3B, H460, Detroit 551 and HT29/FuR cells were treated with tested compounds for the indicated periods. After treatment, cells were washed once with PBS and incubated with MTT (Sigma, St. Louis, Mo., USA) for 2 h. The formazan precipitate was dissolved in 150 μL of DMSO, and the absorbance was measured with an ELISA reader at 570 nm.
(§2) HL-60, Hep 3B, H460, MES-SA, MES-SAID x5 and Detroit 551 cells were treated with vehicle or test compounds for 48 h. The cell growth rate was determined by MTT (3-(4,5-dimethyl-thiazol-2-yl)-2,5-diphenyltetrazoliun bromide) reduction assay.
as §1, with “assays.” for “assays.^21,22”, “HCT-116, A549,” for “HCT-116,”, “KB, Kb-VIN” for “H460, Detroit 551”, “DU145” for “HT29/FuR”
as §1, with “assays.” for “assays.^21,22”, “HL-60,” for “HL-60, HCT-116,”, “H460, A498, Colo205 and” for “H460,”, “551” for “551 and HT29/FuR”

[2] = system: Hep3B; experiment: MTT assay, Hep 3B cells; type: cell-based; settings: Homo sapiens
Method: as §1, §2
as §1, with “assays.” for “assays.^21,22”, “HCT-116, A549,” for “HCT-116,”, “KB, Kb-VIN” for “H460, Detroit 551”, “DU145” for “HT29/FuR”
as §1, with “assays.” for “assays.^21,22”, “HL-60,” for “HL-60, HCT-116,”, “H460, A498, Colo205 and” for “H460,”, “551” for “551 and HT29/FuR”

[3] = system: Detroit 551; experiment: MTT assay, Detroit 551 normal human cells; type: cell-based; settings: for IC50: Detroit 551
Method: as §1, §2
as §1, with “assays.” for “assays.^21,22”, “HL-60,” for “HL-60, HCT-116,”, “H460, A498, Colo205 and” for “H460,”, “551” for “551 and HT29/FuR”

[4] = system: H460; experiment: MTT assay, H460 cells; type: cell-based; settings: Homo sapiens, NCI-H460
Method: as §1, §2
as §1, with “assays.” for “assays.^21,22”, “HL-60,” for “HL-60, HCT-116,”, “H460, A498, Colo205 and” for “H460,”, “551” for “551 and HT29/FuR”

[5] = system: HL-60, HCT-116, Hep3B, H-460; experiment: Cytotoxicity screen (MTT) against human cancer cell lines, results in words; type: cell-based; settings: comparison within sub-series or with CHM-2133
Method: as §1, §2

[6] = system: HT29/5FuR; experiment: MTT assay, HT29/5FuR cells; type: cell-based; settings: Homo sapiens, HT-29, Table 1, 48 h
Method: as §1

[7] = system: HCT116; experiment: MTT assay, HCT-116 cells; type: cell-based; settings: Homo sapiens, Table 1, 48 h
Method: as §1
as §1, with “assays.” for “assays.^21,22”, “HCT-116, A549,” for “HCT-116,”, “KB, Kb-VIN” for “H460, Detroit 551”, “DU145” for “HT29/FuR”

[8] = Homo sapiens, Table 3, B-2 series, 48 hrs
[9] = Table 1, 48 h, MTT, normal human cell
[10] = Homo sapiens, Table 2, B-1 series, 48 hrs

SMILES	melting point	IC50 ([1]; Table 1, 48 h, MTT)	IC50 ([2]; Table 1, 48 h, MTT)	IC50 [6]	IC50 ([4]; Table 1, 48 h, MTT)	IC50 [7]	IC50 [3, 9]	other results
O=C1CC(c2ccccc2F)=Nc2ccc(O)c(O)c21 [Compound 40, 2-(2-Fluorophenyl)-5,6-dihydroxyquinolin-4-one]		500 nM	3900 nM	1630 nM	4100 nM	600 nM	> 100000 nM	cytotoxicity (in words) [5]: greater cytotoxicity
COc1ccc2c(c1OC)C(=O)CC(c1ccccc1F)=N2 [Compound 16, 2-(2-Fluorophenyl)-5,6-dimethoxyquinolin-4-one]		3700 nM	> 20000 nM	2030 nM	> 20000 nM	> 20000 nM	> 20000 nM	
O=C1CC(c2cccc(OCc3ccccc3)c2)=Nc2ccc(N3CCOCC3)cc21 [Compound 116, 2-(3-Benzyloxyphenyl)-6-morpholinoquinolin-4-one]	283 to 285 °C							
CN(C)c1ccc2c(c1)C(=O)CC(c1cccc(OCc3ccccc3)c1)=N2 [Compound 118, 2-(3-Benzyloxyphenyl)-6-dimethylaminoquinolin-4-one]	307 to 308 °C							
COc1ccc2c(c1O)C(=O)CC(c1ccc(F)cc1)=N2 [Compound 39, 2-(4-Fluorophenyl)-5-hydroxy-6-methoxyquinolin-4-one]		1800 nM	11000 nM	330 nM	8800 nM	2400 nM	> 25000 nM	cytotoxicity (in words) [5]: weaker
CN(C)c1ccc2c(c1)C(=O)CC(c1ccccc1OCc1ccccc1)=N2 [Compound 115, 2-(2-Benzyloxyphenyl)-6-dimethylaminoquinolin-4-one]	210 to 212 °C							
COc1ccc2c(c1O)C(=O)CC(c1cccc(F)c1)=N2 [Compound 38, 2-(3-Fluorophenyl)-5-hydroxy-6-methoxyquinolin-4-one]		39 nM	78 nM	260 nM	88 nM	73 nM	> 50000 nM	toxicity toward Detroit 551 normal human cell (in words) ([3]; Table 1 compounds): lower toxicity; cytotoxicity (in words) [5]: greater cytotoxicity
O=C1CC(c2cccc(F)c2)=Nc2ccc(O)c(O)c21 [Compound 41, 2-(3-Fluorophenyl)-5,6-dihydroxyquinolin-4-one]		300 nM	6900 nM	530 nM	6100 nM	8200 nM	> 100000 nM	cytotoxicity (in words) [5]: greater cytotoxicity
O=C1CC(c2ccc(OCc3ccccc3)cc2)=Nc2ccc(N3CCOCC3)cc21 [Compound 119, 2-(4-Benzyloxyphenyl)-6-morpholinoquinolin-4-one]	320 to 323 °C							
COc1ccc(O)cc1C1=Nc2ccc(N3CCCC3)cc2C(=O)C1 [Compound 143b, 2-(5-hydroxy-2-methoxyphenyl)-6-pyrrolidinoquinolin-4-one]								IC50 ([1]; Table 2, B-1 series, 48 hrs): 56200 nM; IC50 ([2]; Table 2, B-1 series, 48 hrs): 59300 nM; IC50 [3, 10]: > 100000 nM; IC50 ([4]; Table 2, B-1 series, 48 hrs): > 100000 nM

More lines, main results first:

melting point	IC50 ([1]; Table 1, 48 h, MTT)	IC50 ([2]; Table 1, 48 h, MTT)	IC50 [6]	IC50 ([4]; Table 1, 48 h, MTT)	IC50 [7]	SMILES	IC50 [3, 9]	other results
310 to 312 °C						COc1cc(C2=Nc3ccc(N4CCCC4)cc3C(=O)C2)ccc1O [Compound 144, 2-(4-Hydroxy-3-methoxyphenyl)-6-pyrrolidinoquinolin-4-one]		IC50 ([1]; Table 3, B-2 series, 48 hrs): 38 nM; IC50 ([2]; Table 3, B-2 series, 48 hrs): 380 nM; IC50 [3, 8]: > 2500 nM; IC50 ([4]; Table 3, B-2 series, 48 hrs): 560 nM
235 to 238 °C						COc1cc(OCc2ccccc2)cc(C2=Nc3cc4c(cc3C(=O)C2)OCO4)c1 [Compound 165, 2-(3-Benzyloxy-5-methoxyphenyl)-6,7-methylenedioxyquinolin-4-one]		
340 to 342 °C						O=C1CC(c2ccc(O)cc2)=Nc2ccc(N3CCOCC3)cc21 [Compound 140, 2-(4-Hydroxyphenyl)-6-morpholinoquinolin-4-one]		IC50 ([1]; Table 2, B-1 series, 48 hrs): 1640 nM; IC50 ([2]; Table 2, B-1 series, 48 hrs): > 10000 nM; IC50 ([4]; Table 2, B-1 series, 48 hrs): > 10000 nM
304 to 306 °C						O=C1CC(c2ccc(O)cc2)=Nc2ccc(N3CCCC3)cc21 [Compound 141, 2-(4-Hydroxyphenyl)-6-pyrrolidinoquinolin-4-one]		IC50 ([1]; Table 3, B-2 series, 48 hrs): 40 nM; IC50 ([2]; Table 3, B-2 series, 48 hrs): 1100 nM; IC50 [3, 8]: > 25000 nM; IC50 ([4]; Table 3, B-2 series, 48 hrs): 1560 nM
302 to 304 °C						COc1ccc(C2=Nc3ccc(N4CCOCC4)cc3C(=O)C2)cc1 [Compound 132, 2-(4-Methoxyphenyl)-6-morpholinoquinolin-4-one]		IC50 ([1]; Table 2, B-1 series, 48 hrs): > 2500 nM; IC50 ([2]; Table 2, B-1 series, 48 hrs): > 2500 nM; IC50 [3, 10]: > 2500 nM; IC50 ([4]; Table 2, B-1 series, 48 hrs): > 2500 nM
